Experimental findings from patent publication US6762164B2, “Use of 3-position cyclosporin derivatives for hair growth” (LG Household & Health Care Ltd., priority 2001, dated 2004) are described below.

The subject of this experiment is Female C57BL/6 mice. The experiment is described as follows: Test for hair growth promoting effect: hair regrowth on shaved backs of mice. It is filed as in vivo. The note with it: shaved back, 100 μl (conc. 0.1% w/v) applied once a day for 30 days, visual approach. The method, then:
Female C57BL/6 mice of ages 6 to 7 weeks were utilized. After removing hairs on the middle of the back with an electric shaver, the mice were weighed and randomly assigned to the test groups with an even distribution of weights. The mice were given one day for adaptation. From the next day, mice were applied once a day on their backs with cyclosporin A and the cyclosporin A derivatives (Compounds 1 to 7) prepared by HPLC in Example 1 in amounts of 100 μl (conc. 0.1% w/v) for 30 days. The results were determined by visual approach, in terms of degrees of hair regrowth. With respect to respective hair-removed areas, rates of new hair growth were examined and compared.

Regarding “[N-methyl-O-propenyl-D-Ser^3] cyclosporin A [Compound 6]”, the “Area rate of hair regrowth (%)” value is listed as 94%. In the case of “[N-methyl-D-Nva^3] cyclosporin A [Compound 2]”, the “Area rate of hair regrowth (%)” value stood at 91%. As for “[D-2-(methylamino)pent-4-ynoyl^3] cyclosporin A [Compound 4]”, the figure is 96%.

Regarding “[D-2-(methylthio)-Sar^3] cyclosporin A [Compound 5]”, the “Area rate of hair regrowth (%)” value turned out to be 93%. Consider “[N-methyl-D-Ser^3] cyclosporin A [Compound 7]”, for which the “Area rate of hair regrowth (%)” value is on record as 90%. As for “[N-methyl-D-Abu3] cyclosporin A [Compound 1]”, the figure is 95%; as for cyclosporin A [reference compound], 91%. As for “[D-2-(methylamino)hexa-4-ynoyl^3] cyclosporin A [Compound 3]”, the figure is 95%.
